In ChEMBL document CHEMBL5241120, “Insights into the medicinal chemistry of heterocycles integrated with a pyrazolo[1,5-a]pyrimidine scaffold” (RSC Med Chem, 2022) one finds Activity data, which are given here for one compound.

Test [1] relates to Mus musculus. Briefly: Anxiolytic activity in mouse assessed as time spent in light at 100 mg/kg, po. Type of test: functional.
In test [2] the test system is Mus musculus. Briefly: Anxiolytic activity in mouse assessed as transfer number at 100 mg/kg, po. It is filed as functional.

`CCOC(=O)c1ncn2c1CN(C)C(=O)c1cc(F)ccc1-2` [FLUMAZENIL]: the figures for the Activity in the test with Mus musculus [1] and with Mus musculus [2] were 120.08% and 12.8, respectively.
